Results on 1 compound are retold here after article PMC10859787 (Clinical and Translational Science, 2024).

Data set [1] can be described thus: Population pharmacokinetic analysis of upadacitinib plasma concentrations. As to conditions: for Cmax: C max; for Cmax / concentration at 24 h / C avg: model-estimated, 15 mg once daily, median (5th to 95th percentile); for concentration at 24 h: C trough. The class given is in vivo, human.
For data set [2] the following is noted: cited from earlier work.
The test system of another data set is cytochrome P450 (CYP) 3A. As to conditions: cited from earlier work.
The test system of a further data set is CYP2D6. The note with it: cited from earlier work.
The mark [3] stands for this setting: human, plasma, oral, 15 mg, patients with RA in phase III trials (N = 1592).
[4] abbreviates: human, plasma, oral, 15 mg, patients with nr-axSpA (N = 71).

In data set [1] (human, plasma, oral, 15 mg), `CC[C@@H]1CN(C(=O)NCC(F)(F)F)C[C@@H]1c1cnc2cnc3[nH]ccc3n12` [upadacitinib] had a Vd/F of 171 L. Also, the Cmax in data set [1] (setting [3]) is 41.1 ng/mL; in data set [1] (setting [4]), 37.3 ng/mL. Also, the concentration at 24 h in data set [1] (human, plasma, oral, 15 mg, patients with AS (N = 173)) was 3.71 ng/mL; in data set [1] (setting [3]), 3.72 ng/mL; in data set [1] (setting [4]), 4.58 ng/mL. The C avg is given as 14.5 (9.78, 25.9) ng/mL in data set [1] (patients with AS (N = 173)); 14.9 (9.74, 29.2) ng/mL in data set [1] (patients with RA in phase III trials (N = 1592)); 14.8 (10.5, 25.5) ng/mL in data set [1] (patients with nr-axSpA (N = 71)). In addition, the “dose linearity of pharmacokinetics” value in data set [2] (7.5 to 45 mg q.d. dose range) is reported as “linear pharmacokinetics”. The “apparent volume of distribution of the central compartment (population estimate)” value in data set [2] (previously developed RA model) was 156 L. In addition, the “substrate for cytochrome P450 (CYP) 3A” value in the data set with cytochrome P450 (CYP) 3A is listed as “substrate”. Also, the “substrate for CYP2D6” value with CYP2D6 is “to a minor extent”.
